The test relates to BDF1 mice, P388 leukemia ip, median survival T/C. Description: NCI In Vivo Anticancer Drug Screen. Data for tumor model P388 Leukemia (intraperitoneal) in B6D2F1 (BDF1) mice. Particulars: endpoint: median survival time, higher = longer survival. The procedure, abridged:
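Survival ratio, drug arm over vehicle arm, in mice with a transplanted tumour.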

Setting [1] is: dose: 100.0 mg/kg/injection, schedule: Q04DX003 (ip), vehicle: Klucel (hydroxypropylcellulose) (HPC).
[2] abbreviates: dose: 200.0 mg/kg/injection, schedule: Q04DX003 (ip), vehicle: Klucel (hydroxypropylcellulose) (HPC).
Setting [3] is: dose: 25.0 mg/kg/injection, schedule: Q04DX003 (ip), vehicle: saline with Tween-80.
Where [4] appears, read: dose: 100.0 mg/kg/injection, schedule: Q01DX009 (ip), vehicle: saline with Tween-80.
Where [5] appears, read: dose: 200.0 mg/kg/injection, schedule: Q01DX009 (ip), vehicle: saline with Tween-80.
Setting [6] is: dose: 100.0 mg/kg/injection, schedule: Q01DX009 (ip), vehicle: Klucel (hydroxypropylcellulose) (HPC).
Setting [7] is: dose: 200.0 mg/kg/injection, schedule: Q01DX009 (ip), vehicle: Klucel (hydroxypropylcellulose) (HPC).
Setting [8] is: dose: 400.0 mg/kg/injection, schedule: Q04DX003 (ip), vehicle: Klucel (hydroxypropylcellulose) (HPC).
Where [9] appears, read: dose: 150.0 mg/kg/injection, schedule: Q01DX009 (ip), vehicle: saline.

Molecules are shown by their SMILES. Values joined by “and” are separate entries in the source; they are usually repeats but may differ in a detail not shown here. Identical values can stand only once. Toxic doses and inconclusive results are not listed.

For the compound `NC(Cc1ccc(O)cc1)C(=O)N/N=C/c1ccc(N(CCCl)CCCl)cc1` (configuration not stated), the T/C (dose: 18.0 mg/kg/injection, schedule: Q04DX003 (ip), vehicle: Klucel (hydroxypropylcellulose) (HPC)) was 108 % of control; the T/C (dose: 26.0 mg/kg/injection, schedule: Q04DX003 (ip), vehicle: Klucel (hydroxypropylcellulose) (HPC)) is 116 % of control; the T/C (dose: 60.0 mg/kg/injection, schedule: Q04DX003 (ip), vehicle: Klucel (hydroxypropylcellulose) (HPC)) is 165 % of control; the T/C (dose: 90.0 mg/kg/injection, schedule: Q04DX003 (ip), vehicle: Klucel (hydroxypropylcellulose) (HPC)) was 169 % of control; the T/C under setting [1] was 165 % of control; the T/C (dose: 133.0 mg/kg/injection, schedule: Q04DX003 (ip), vehicle: Klucel (hydroxypropylcellulose) (HPC)) was 170 % of control. Further, the T/C was 192 % of control and 204 % of control under setting [2]; 166 % of control (dose: 300.0 mg/kg/injection, schedule: Q04DX003 (ip), vehicle: Klucel (hydroxypropylcellulose) (HPC)).

Consider `O=c1cc(CBr)c2ccccc2[nH]1`, for which the T/C (dose: 6.25 mg/kg/injection, schedule: Q04DX003 (ip), vehicle: saline with Tween-80) is 91 % of control; the T/C (dose: 12.5 mg/kg/injection, schedule: Q04DX003 (ip), vehicle: saline with Tween-80) is 104 % of control; the T/C under setting [3] was 104 % of control.

As to `COC(=O)C1=C(C)NC2(C)SC1C(C)C2C(=O)OC` (configuration not stated), the T/C under setting [4] was 107 % of control and the T/C under setting [5] is 98 % of control.

Consider `Nc1c(Br)cc2c(c1Br)Cc1cc(Br)ccc1-2`, for which the T/C is, setting by setting: under setting [4], 91 % of control; under setting [5], 87 % of control.

Regarding `S`, the T/C reads like this: under setting [6], 100 % of control; under setting [1], 86 % of control; under setting [7], 110 % of control; under setting [2], 100 % of control; under setting [8], 100 % of control.

Regarding `OC1OCCOC1O` (configuration not stated), the T/C runs as follows: (dose: 17.8 mg/kg/injection, schedule: Q01DX009 (ip), vehicle: saline) 101 % of control; (dose: 26.6 mg/kg/injection, schedule: Q01DX009 (ip), vehicle: saline) 112 % of control; (dose: 40.0 mg/kg/injection, schedule: Q01DX009 (ip), vehicle: saline) 110 % of control; (dose: 65.0 mg/kg/injection, schedule: Q01DX009 (ip), vehicle: saline) 121 % of control; (dose: 100.0 mg/kg/injection, schedule: Q01DX009 (ip), vehicle: saline) 166 % of control; under setting [9], 169 % of control. In addition, the T/C (dose: 178.0 mg/kg/injection, schedule: Q01DX009 (ip), vehicle: saline) is 166 % of control; the T/C (dose: 200.0 mg/kg/injection, schedule: Q01DX009 (ip), vehicle: saline) was 166 % of control; the T/C (dose: 266.0 mg/kg/injection, schedule: Q01DX009 (ip), vehicle: saline) is 165 % of control; the T/C (dose: 400.0 mg/kg/injection, schedule: Q01DX009 (ip), vehicle: saline) was 157 % of control and 161 % of control and 168 % of control.

On to `CC1(C)O[C@]2(C)CC[C@@H]1[C@@H](O)[C@@H]2N1CCCCC1`, for which the T/C (dose: 50.0 mg/kg/injection, schedule: Q01DX005 (ip), vehicle: saline with Tween-80) is 109 % of control; the T/C (dose: 100.0 mg/kg/injection, schedule: Q01DX005 (ip), vehicle: saline with Tween-80) was 111 % of control; the T/C (dose: 200.0 mg/kg/injection, schedule: Q01DX005 (ip), vehicle: saline with Tween-80) is 97 % of control.

On to `O=C1C(N2CC2)=C(N2CC2)C(=O)C(N2CC2)=C1N1CC1`, for which the T/C runs as follows: (dose: 0.02 mg/kg/injection, schedule: Q01DX009 (ip), vehicle: saline) 232 % of control and 307 % of control; (dose: 0.04 mg/kg/injection, schedule: Q01DX009 (ip), vehicle: saline) 201 % of control; (dose: 0.04 mg/kg/injection, schedule: Q04DX003 (ip), vehicle: saline with Tween-80) 114 % of control; (dose: 0.06 mg/kg/injection, schedule: Q04DX003 (ip), vehicle: saline with Tween-80) 118 % of control; (dose: 0.07 mg/kg/injection, schedule: Q04DX003 (ip), vehicle: saline with Tween-80) 109 % of control; (dose: 0.08 mg/kg/injection, schedule: Q01DX009 (ip), vehicle: saline) 109 % of control. In addition, the T/C by setting is: (dose: 0.11 mg/kg/injection, schedule: Q04DX003 (ip), vehicle: other) 200 % of control; (dose: 0.15 mg/kg/injection, schedule: Q04DX003 (ip), vehicle: saline with Tween-80) 185 % of control; (dose: 0.25 mg/kg/injection, schedule: Q04DX003 (ip), vehicle: other) 186 % of control; (dose: 0.25 mg/kg/injection, schedule: Q04DX003 (ip), vehicle: saline with Tween-80) 163 % of control; (dose: 6.6 micrograms/kg/injection, schedule: Q01DX009 (ip), vehicle: saline with Tween-80) 150 % of control; (dose: 10.0 micrograms/kg/injection, schedule: Q01DX009 (ip), vehicle: saline with Tween-80) 175 % of control. The T/C (dose: 20.0 micrograms/kg/injection, schedule: Q01DX009 (ip), vehicle: saline with Tween-80) is 164 % of control; the T/C (dose: 30.0 micrograms/kg/injection, schedule: Q01DX009 (ip), vehicle: saline with Tween-80) is 164 % of control; the T/C (dose: 31.3 micrograms/kg/injection, schedule: Q01DX009 (ip), vehicle: saline with Tween-80) was 156 % of control; the T/C (dose: 45.0 micrograms/kg/injection, schedule: Q01DX009 (ip), vehicle: saline with Tween-80) is 268 % of control; the T/C (dose: 62.5 micrograms/kg/injection, schedule: Q01DX009 (ip), vehicle: saline with Tween-80) is 87 % of control; the T/C (dose: 125.0 micrograms/kg/injection, schedule: Q01DX009 (ip), vehicle: saline with Tween-80) was 86 % of control.

In the case of `CC(C)CC(C)CC(O)CC(C)C` (configuration not stated), the T/C was 110 % of control under setting [6]; 100 % of control under setting [1]; 100 % of control under setting [7]; 100 % of control under setting [2]; 115 % of control (dose: 400.0 mg/kg/injection, schedule: Q01DX009 (ip), vehicle: Klucel (hydroxypropylcellulose) (HPC)); 95 % of control under setting [8].

`O=C(Nc1ccccc1)C1=C(Nc2ccccc2)CSC1`: the T/C by setting is: (dose: 25.0 mg/kg/injection, schedule: Q01DX009 (ip), vehicle: saline with Tween-80) 100 % of control; under setting [3], 99 % of control; (dose: 50.0 mg/kg/injection, schedule: Q01DX009 (ip), vehicle: saline with Tween-80) 91 % of control; (dose: 50.0 mg/kg/injection, schedule: Q04DX003 (ip), vehicle: saline with Tween-80) 99 % of control; under setting [4], 94 % of control; (dose: 100.0 mg/kg/injection, schedule: Q04DX003 (ip), vehicle: saline with Tween-80) 96 % of control. For the same compound, the T/C is, setting by setting: under setting [5], 102 % of control; (dose: 200.0 mg/kg/injection, schedule: Q04DX003 (ip), vehicle: saline with Tween-80) 105 % of control; (dose: 400.0 mg/kg/injection, schedule: Q01DX009 (ip), vehicle: saline with Tween-80) 110 % of control; (dose: 400.0 mg/kg/injection, schedule: Q04DX003 (ip), vehicle: saline with Tween-80) 103 % of control.

Consider `N/C(CCNO)=N\O`, for which the T/C reads like this: (dose: 75.0 mg/kg/injection, schedule: Q01DX009 (ip), vehicle: saline) 96 % of control; under setting [9], 86 % of control; (dose: 300.0 mg/kg/injection, schedule: Q01DX009 (ip), vehicle: saline) 96 % of control.

Turning to `Nc1ccccc1SC1CC(=O)N(c2ccc(I)cc2)C1=O` (configuration not stated), the T/C (dose: 12.5 mg/kg/injection, schedule: Q04DX003 (ip), vehicle: Klucel (hydroxypropylcellulose) (HPC)) was 95 % of control; the T/C (dose: 25.0 mg/kg/injection, schedule: Q01DX001 (ip), vehicle: Klucel (hydroxypropylcellulose) (HPC)) is 108 % of control; the T/C (dose: 25.0 mg/kg/injection, schedule: Q04DX003 (ip), vehicle: Klucel (hydroxypropylcellulose) (HPC)) is 95 % of control; the T/C (dose: 50.0 mg/kg/injection, schedule: Q01DX001 (ip), vehicle: Klucel (hydroxypropylcellulose) (HPC)) was 104 % of control; the T/C (dose: 50.0 mg/kg/injection, schedule: Q04DX003 (ip), vehicle: Klucel (hydroxypropylcellulose) (HPC)) is 100 % of control; the T/C (dose: 100.0 mg/kg/injection, schedule: Q01DX001 (ip), vehicle: Klucel (hydroxypropylcellulose) (HPC)) is 108 % of control. Under setting [1], the T/C was 112 % of control.

(Values after PubChem BioAssay AID328 (DTP/NCI, 2004).)
